Assay results reported in paper PMC7697615, “Selective Interactions of O-Methylated Flavonoid Natural Products with Human Monoamine Oxidase-A and -B” (Molecules, 2020).
“Also recorded” adds a separate entry of the source. Read-outs that look alike come from different tables or passages of the source.

Experiments:
MAO-A [1] = target: T1, MAO-A (Homo sapiens, UniProt P21397); experiment: MAO inhibition assay (kynuramine oxidative deamination), MAO-A; type: biochemical; settings: for SI b (Selectivity index: MAO-A IC50/MAO-B IC50): ratio of IC50 values
T1 construct: purchased BD Biosciences (Bedford, MA, USA)
T1 sequence (P21397 1-527): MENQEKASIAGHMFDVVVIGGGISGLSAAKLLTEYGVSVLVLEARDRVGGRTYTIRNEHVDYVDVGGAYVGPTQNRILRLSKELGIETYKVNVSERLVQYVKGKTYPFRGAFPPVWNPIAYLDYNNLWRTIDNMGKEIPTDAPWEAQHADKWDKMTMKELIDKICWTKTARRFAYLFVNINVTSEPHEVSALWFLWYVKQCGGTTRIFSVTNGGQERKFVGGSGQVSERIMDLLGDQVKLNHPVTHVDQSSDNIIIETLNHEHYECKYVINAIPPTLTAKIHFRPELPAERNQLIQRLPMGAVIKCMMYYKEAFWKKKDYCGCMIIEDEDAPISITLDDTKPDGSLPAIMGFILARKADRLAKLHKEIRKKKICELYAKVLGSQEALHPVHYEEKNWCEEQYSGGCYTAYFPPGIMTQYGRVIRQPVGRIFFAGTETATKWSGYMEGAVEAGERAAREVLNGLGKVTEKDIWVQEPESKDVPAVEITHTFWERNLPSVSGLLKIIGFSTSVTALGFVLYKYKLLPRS
Description: In this study, we have investigated the effect of the isolated constituents (1–6) on human recombinant MAO-A and -B. The kynuramine oxidation deamination assay was performed in 96-well plates as previously reported, with modification. A fixed concentration of kynuramine substrate and varying concentrations of test compounds or inhibitor were used to determine the IC50 values. Kynuramine concentrations for MAO-A and -B were 80 μM and 50 μM, respectively. […] The enzymatic reactions were initiated by the addition of MAO-A (5 μg/mL) or -B (12.5 μg/mL), and incubated for 20 min at 37 °C. The enzyme reactions were terminated by the addition of 78 μL of 2N NaOH. The formation of 4-hydroxyquinoline (the enzyme reaction end product) was recorded fluorometrically on a SpectraMax M5 fluorescence plate reader (Molecular Devices, Sunnyvale, CA, USA) with an excitation (320 nm) and emission (380 nm) wavelength, using the Soft MaxPro-6 program. The inhibition effects of enzyme activity were calculated as the percent of product formation compared to the corresponding controls (enzyme–substrate reaction) without inhibitors. The assay controls, to define the interference of the test compounds with the fluorescence measurements, were set up simultaneously, and the enzyme or the substrate was added after stopping the reaction.
(§1) The dose–response enzyme-inhibition curves were generated using Microsoft® Excel and the IC50 values were computed with XLfit®.

MAO-A [2] = target: T1, MAO-A; experiment: Enzyme kinetics and mechanism study (Lineweaver-Burk), MAO-A; type: biochemical; settings: for Type of Inhibition, Monoamine Oxidase-A: kinetics and dialysis
Description: (§3) Three sets of assays were completed at varying concentrations of the substrate for each experiment, one control without inhibitor and the others with two different concentrations of the inhibitor. The data were evaluated by double reciprocal Lineweaver-Burk plots for determination of the Ki (i.e., inhibition/binding affinity) values.
(§4) For determination of the binding affinity of the inhibitor (Ki) to MAO-A and -B, the enzyme assays were carried out at different concentrations of kynuramine substrate (1.90 μM to 500 μM) and varying concentrations of the inhibitors/compound. The flavonoids (1–6) were tested at 0.030–0.100 μM for MAO-A and 0.100–0.500 μM for -B. The controls without inhibitor were also run simultaneously. The results were analyzed by SigmaPlot version 10 using standard double reciprocal Lineweaver-Burk plots for computing Km and Vmax values, which were further analyzed to determine the Ki values [18, 36, 37].

MAO-A [3] = target: T1, MAO-A; experiment: Enzyme-inhibitor complex equilibrium dialysis assay, MAO-A; type: binding; settings: 20 min incubation, dialyzed overnight; 1 10.0 μM, 2 25.0 μM, 3 25.0 μM, 5 100.0 μM
Description: (§2) Enzyme-inhibitors mostly produce inhibition of the target enzyme through the formation of an enzyme–inhibitor complex. The formation of the enzyme–inhibitor complex may be accelerated in the presence of a high concentration of the test inhibitor. The property of binding of test compounds to MAO-A or -B was determined by the formation of the enzyme–inhibitor complex by incubation of the enzyme with a high concentration of the test compound. This was followed by extensive equilibrium dialysis of the enzyme–inhibitor complex. Recovery of catalytic activity of MAO-A and -B was determined before and after the dialysis. […] After 20 min incubation at 37 °C, the reaction was stopped by chilling the tubes in an ice bath. […] All the samples with enzyme–inhibitor complex were individually dialyzed against potassium phosphate buffer (25 mM; pH 7.4) at 4 °C for 16–18 h (including three buffer changes). The control enzyme (without inhibitor) was also run through the same procedure and the activity of the enzyme was determined before and after the dialysis.

MAO-B [4] = target: T2, MAO-B (Homo sapiens, UniProt P27338); experiment: MAO inhibition assay (kynuramine oxidative deamination), MAO-B; type: biochemical; set-up: purchased BD Biosciences (Bedford, MA, USA); settings: kynuramine 50 μM; mean ± S.D. of at least triplicate observations
T2 sequence (P27338 1-520): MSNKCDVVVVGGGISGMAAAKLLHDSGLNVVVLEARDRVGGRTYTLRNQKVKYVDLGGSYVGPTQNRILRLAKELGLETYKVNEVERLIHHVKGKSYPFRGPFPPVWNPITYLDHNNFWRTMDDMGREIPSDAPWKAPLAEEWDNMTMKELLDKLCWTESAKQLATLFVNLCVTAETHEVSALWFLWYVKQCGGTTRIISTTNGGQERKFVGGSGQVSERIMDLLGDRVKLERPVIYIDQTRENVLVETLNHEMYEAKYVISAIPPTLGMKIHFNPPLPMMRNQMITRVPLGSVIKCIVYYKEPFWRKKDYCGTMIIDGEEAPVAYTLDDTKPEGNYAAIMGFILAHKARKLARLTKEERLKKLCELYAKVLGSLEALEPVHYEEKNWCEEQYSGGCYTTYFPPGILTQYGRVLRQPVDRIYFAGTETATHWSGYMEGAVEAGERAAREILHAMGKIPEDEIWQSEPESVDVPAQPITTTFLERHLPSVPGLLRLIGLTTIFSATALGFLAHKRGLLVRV
Description: In this study, we have investigated the effect of the isolated constituents (1–6) on human recombinant MAO-A and -B. The kynuramine oxidation deamination assay was performed in 96-well plates as previously reported, with modification. A fixed concentration of kynuramine substrate and varying concentrations of test compounds or inhibitor were used to determine the IC50 values. Kynuramine concentrations for MAO-A and -B were 80 μM and 50 μM, respectively. […] The enzyme reactions were terminated by the addition of 78 μL of 2N NaOH. The formation of 4-hydroxyquinoline (the enzyme reaction end product) was recorded fluorometrically on a SpectraMax M5 fluorescence plate reader (Molecular Devices, Sunnyvale, CA, USA) with an excitation (320 nm) and emission (380 nm) wavelength, using the Soft MaxPro-6 program. The inhibition effects of enzyme activity were calculated as the percent of product formation compared to the corresponding controls (enzyme–substrate reaction) without inhibitors. The assay controls, to define the interference of the test compounds with the fluorescence measurements, were set up simultaneously, and the enzyme or the substrate was added after stopping the reaction.
as §1

MAO-B [5] = target: T2, MAO-B; experiment: Enzyme kinetics and mechanism study (Lineweaver-Burk), MAO-B; settings: for Type of Inhibition, Monoamine Oxidase-B: kinetics and dialysis
Description: as §3, §4

MAO-B [6] = target: T2, MAO-B; experiment: Time-dependent inhibition assay, MAO-B; type: biochemical; set-up: purchased BD Biosciences (Bedford, MA, USA); settings: pre-incubation 0–15 min; 3 3.0 μM, 4 1.0 μM, 6 2.0 μM
Description: To investigate if the binding of the inhibitor with MAO-A and -B followed time-dependent inhibition kinetics, the enzyme was pre-incubated with the inhibitor for different time periods (0–15 min). […] The controls without inhibitors were also run simultaneously. The activities of the MAO-A and -B enzymes were determined as described above and the percentage of enzyme activity remaining was plotted against the pre-incubation time to determine time-dependent inhibition.

MAO-B [7] = target: T2, MAO-B; experiment: Enzyme-inhibitor complex equilibrium dialysis assay, MAO-B; type: binding; set-up: purchased BD Biosciences (Bedford, MA, USA); settings: for MAO-B enzyme activity recovered after dialysis / inhibition at 50 µM: 50.0 μM; for inhibition at 50 µM: read-out: Inhibition of MAO-B activity on incubation (before dialysis); for Reversibility of binding with MAO-B: 20 min incubation, dialyzed overnight, 3, 4, 6 at 50.0 μM, deprenyl 0.500 μM
Description: as §2

[8] = kynuramine 80 μM, mean ± S.D. of at least triplicate observations, read-out: MAO-A IC50
[9] = double reciprocal plots, mean ± SD of three observations, read-out: Ki, Monoamine Oxidase-A

Row | IC50 (MAO-A [1]; [8]) [nM] | Ki (MAO-A [2]; [9]) [nM] | IC50 (MAO-B [4]) [nM] | SI b (Selectivity index: MAO-A IC50/MAO-B IC50) (MAO-A [1]) | Ki (MAO-B [5]) [nM] | Type of Inhibition, Monoamine Oxidase-B (MAO-B [5]) | Time dependence of MAO-B inhibition (MAO-B [6]) | MAO-B enzyme activity recovered after dialysis (MAO-B [7]) [%] | inhibition at 50 µM (MAO-B [7]) [%] | Reversibility of binding with MAO-B (MAO-B [7]) | melting point [°C] | SMILES | Type of Inhibition, Monoamine Oxidase-A (MAO-A [2]) | Reversibility of binding with MAO-A (MAO-A [3]) | IC50 (MAO-A [1]) [nM] | Selectivity for MAO-A vs. MAO-B (MAO-A [1]) | Ki (MAO-A [2]) [nM]
1 | 1350 ± 198 | 3530 ± 265 | > 100000 | – | – | – | – | – | – | – | – | COc1ccc(-c2oc3cc(O)cc(O)c3c(=O)c2O)cc1 [Compound 5, 4′-O-methylkaempferol] | partially-reversible mixed-type | partial reversibility; also recorded: partially reversible | – | – | –
2 | 33 ± 42 | 37.9 ± 0.8 | 9670 ± 2310 | 0.0034 | – | – | – | – | – | – | – | COc1ccc(-c2oc3cc(O)cc(O)c3c(=O)c2OC)cc1 [Compound 1, 3,4′-di-O-methylkaempferol] | reversible-competitive; also recorded: Competitive/Reversible | – | – | > 292 fold | –
3 | 407 ± 75 | 339 ± 219 | 5930 ± 833 | – | – | – | – | – | – | – | – | COc1cc(O)c(C(=O)/C=C/c2ccccc2)c(OC)c1 [Compound 2, 2′-hydroxy-4′,6′-dimethoxy-chalcone] | Competitive/Reversible | – | – | – | –
4 | 87500 ± 3540 | – | 875 ± 35 | 100.0 | 874 ± 69 | reversible and competitive | did not show time-dependent inhibition | 80 | > 60 | reversible; also recorded: reversibly | – | COc1cc(-c2cc(=O)c3c(O)cc(O)cc3o2)c(OC)c(OC)c1OC [Compound 6, 5,7-dihydroxy-2,3,4,5-tetramethoxyflavone] | – | – | – | – | –
5 | 5170 ± 1110 | – | 800 ± 180 | 6.451 | 809 ± 93 | reversible and competitive | did not show time-dependent inhibition | 80 | > 60 | reversible; also recorded: reversibly | 275 to 277 | COc1cc2oc(-c3ccc(O)cc3)cc(=O)c2c(O)c1C [Compound 4, 8-demethylsideroxylin] | – | – | – | – | –

Row | SMILES | IC50 (MAO-A [1]; [8]) [nM] | Ki (MAO-A [2]; [9]) [nM] | IC50 (MAO-B [4]) [nM] | SI b (Selectivity index: MAO-A IC50/MAO-B IC50) (MAO-A [1]) | Ki (MAO-B [5]) [nM] | Type of Inhibition, Monoamine Oxidase-B (MAO-B [5]) | Time dependence of MAO-B inhibition (MAO-B [6]) | MAO-B enzyme activity recovered after dialysis (MAO-B [7]) [%] | inhibition at 50 µM (MAO-B [7]) [%] | Reversibility of binding with MAO-B (MAO-B [7]) | melting point [°C] | Type of Inhibition, Monoamine Oxidase-A (MAO-A [2]) | Reversibility of binding with MAO-A (MAO-A [3]) | IC50 (MAO-A [1]) [nM] | Selectivity for MAO-A vs. MAO-B (MAO-A [1]) | Ki (MAO-A [2]) [nM]
6 | COc1cc(O)cc(O)c1C(=O)/C=C/c1ccccc1 [Compound 3, 2′,4′-dihydroxy-6′-methoxy-chalcone] | – | – | 2700 ± 794 | 0.432 | 1240 ± 600 | reversible and competitive | did not show time-dependent inhibition | 80 | > 60 | reversible; also recorded: reversibly | – | reversible-competitive; also recorded: Competitive/Reversible | – | 1170 ± 513 | ~ 2 fold | 633 ± 107
